In patent publication US20090247644A1, “MEMANTINE FORMULATIONS” (FOREST LABORATORIES HOLDINGS LIMITED, priority 2008, published 2009):
Counter-ions that a name gives are not always drawn.

Legend:
Type in all cases: physicochemical
[1] = Flowability, Jenike and Johanson Sifting Segregation tester (time for 200 g to fall through hopper orifice); conditions: 200 g material, hydrochloride
Description: The flowability of the equant-shaped crystals of memantine was measured using a Jenike and Johanson […] Segregation tester (Jenike and Johanson, Tyngsboro, Mass.). The time taken for 200 g of material to fall through the circular orifice of the hopper was measured. Two different hoppers were used: a shallow angle cone (Hopper A, 35° from horizontal) and a steep angle cone (Hopper B, 75° from horizontal). […] See, ASTM Standard D6941-03, and A. Alexander et al., Pharmaceutical Technology, Yearbook 2000, pp. 6-21.

[2] = Angle of repose, Hosakawa Micron powder tester; conditions: hydrochloride
Description: For pharmaceutical powders, a lower angle of repose value indicates better flow characteristics. The angle of repose was measured using a Hosakawa Micron powder tester, Model PT-N (Hosokawa Micron Powder systems, Summit, N.J.) using the instructions provided by the vendor. Also see Pharmaceutical Dosage Forms, Tablets, Volume 1, Herbert A. Lieberman, Leon Lachman, Joseph B. Schwartz, 1989, 2nd Ed.

[3] = Bulk density and tap density, Varian Tapped Density tester; conditions: hydrochloride
Description: Bulk Density and Apparent Density after Tamping (Tap Density)
The bulk density and apparent density were measured using a Varian Tapped Density tester (Varian Inc.,) using the instructions provided by the vendor. Also see USP 29 (Tap-Bulk-Density).

[4] = Particle size distribution by laser diffraction; conditions: equant: Helos BF with Rodos; needle: Mastersizer 2000; hydrochloride
Description: The particle size distribution (average d90, d50 and d10 values) of the equant-shaped crystals of memantine was measured by Laser Diffraction technique using a Helos BF with Rodos instrument (Sympatec Inc, Lawrenceville, N.J.). The particle size distribution of the needle-shaped crystals of memantine was measured using a Mastersizer 2000 instrument (Malvern Instruments Limited, Worcestershire, UK).

[5] = Aspect ratio by scanning electron microscopy; conditions: ratio of maximum length to minimum width; hydrochloride
Text: The aspect ratio refers to the ratio of the maximum length of a crystal to its minimum width. At an aspect ratio of 1, a crystal has an isometric crystal habit. With the aspect ratio decreasing below 1, the crystal habit becomes more and more plate-like. In contrast, when the aspect ratio increases more and more above 1, the crystal approaches a needle-like crystal habit. In accordance with the present invention, cubic-shaped crystals of memantine hydrochloride have an aspect ratio of preferably below about 5, such as, below about 3 (3.0), e.g., below about 2 (2.0). The lower limit of the aspect ratio is not critical. The aspect ratio is determined by means of scanning electron microscopy (SEM). The sample is spread onto a pure aluminum support and subsequently sputter-coated with a thin layer of Pd/Au (thickness in the nanometer range; sputter coater SCD 030 (Balzers)). Using a JSM 6400 Scanning Electron Microscope (JEOL, Japan) at an acceleration voltage of 20 keV and a working distance of 15 mm, SEM images are taken at 150-fold magnification. Electronic filtering and thresholding is used to improve the separation of particles in binary images from the background. For image analysis, ANALYSIS software version 5.0 (SIS, Muenster, Germany) is used. […]

[6] = Hopper A (shallow angle cone, 35° from horizontal)
[7] = Hopper B (steep angle cone, 75° from horizontal)

Flowability [1, 6] | Flowability ([1]; Hopper A (shallow angle cone, 35° from horizontal), listed as equant-shaped crystals) | Flowability [1, 7] | Flowability ([1]; Hopper B (steep angle cone, 75° from horizontal), listed as equant-shaped crystals) | Angle of Repose [2] | Bulk Density [3] | Compressibility Index [3] | Tap Density [3] | PSD d10 [4] | PSD d50 [4] | PSD d90 [4] | Aspect Ratio [5] | Flowability ([1]; Hopper A (shallow angle cone, 35° from horizontal), listed as needle-shaped crystals) | Flowability ([1]; Hopper B (steep angle cone, 75° from horizontal), listed as needle-shaped crystals) | Structure (SMILES)
38.3 g/s | about 38 g/s | 13.6 g/s | about 14 g/s | 43.1 ° | 0.51 g/cc | 16 | 0.61 g/cc | 10 μm | 205 μm | 376 μm | 1.6 |  |  | CC12CC3CC(C)(C1)CC(N)(C3)C2 [Equant-shaped crystals of Memantine HCl, memantine hydrochloride]
Does not flow |  | Does not flow |  | 66.2 ° | 0.30 g/cc | 40 | 0.50 g/cc | 18.8 μm | 113.8 μm | 1229.4 μm | 11.4 | do not flow | do not flow | CC12CC3CC(C)(C1)CC(N)(C3)C2 [Needle-shaped crystals of Memantine HCl, memantine hydrochloride]
